Test results from the NIST ThermoML archive (doi:10.1021/je060271a).
± gives the expanded uncertainty stated by the source.

Conditions: 323.14 K, Liquid, Vibrating tube method

CCCCCCC(=O)OCC(COC(=O)CCCCCC)(COC(=O)CCCCCC)COC(=O)CCCCCC [pentaerythritol tetraheptanoate]
Conditions	mass density [kg/m3]
8083.9 kPa	961.1 ± 1.2
8112.2 kPa	961 ± 1.2
8146.4 kPa	961.1 ± 1.2
8174.7 kPa	961.1 ± 1.2
8204 kPa	961.1 ± 1.2
8239.5 kPa	961.1 ± 1.2
8270.3 kPa	961.2 ± 1.2
8300.6 kPa	961.1 ± 1.2
8335.1 kPa	961.2 ± 1.2
8358.1 kPa	961.3 ± 1.2
8377.9 kPa	961.3 ± 1.2
8401.4 kPa	961.2 ± 1.2
8421.2 kPa	961.3 ± 1.2
8441.4 kPa	961.4 ± 1.2
8465.3 kPa	961.4 ± 1.2
8485.9 kPa	961.3 ± 1.2
8506.7 kPa	961.3 ± 1.2
8527.9 kPa	961.3 ± 1.2
8548.6 kPa	961.4 ± 1.2
8573.6 kPa	961.4 ± 1.2
8594.5 kPa	961.5 ± 1.2
8619.3 kPa	961.5 ± 1.2
8640.2 kPa	961.3 ± 1.2
8661.6 kPa	961.4 ± 1.2
8682.6 kPa	961.4 ± 1.2
9244.8 kPa	961.9 ± 1.2
9604.8 kPa	962.1 ± 1.2
9745.2 kPa	962.3 ± 1.2
9761.3 kPa	962.2 ± 1.2
9775 kPa	962.3 ± 1.2
9934.6 kPa	962.3 ± 1.2
9965.6 kPa	962.4 ± 1.2
9979.5 kPa	962.3 ± 1.2
9996.2 kPa	962.3 ± 1.2
10025 kPa	962.4 ± 1.2
10042 kPa	962.3 ± 1.2
10056 kPa	962.4 ± 1.2
10453 kPa	962.6 ± 1.2
10957 kPa	962.9 ± 1.2
10974 kPa	962.9 ± 1.2
10995 kPa	963 ± 1.2
11012 kPa	962.9 ± 1.2
11032 kPa	963 ± 1.2
11050 kPa	963.1 ± 1.2
11067 kPa	963 ± 1.2
11088 kPa	963 ± 1.2
11123 kPa	963.1 ± 1.2
11141 kPa	963.1 ± 1.2
11162 kPa	963.1 ± 1.2
11180 kPa	963.2 ± 1.2
11202 kPa	963.2 ± 1.2
11220 kPa	963.2 ± 1.2
11238 kPa	963.3 ± 1.2
11259 kPa	963.3 ± 1.2
11278 kPa	963.2 ± 1.2
11296 kPa	963.2 ± 1.2
11317 kPa	963.2 ± 1.2
11335 kPa	963.2 ± 1.2
11354 kPa	963.2 ± 1.2
11679 kPa	963.5 ± 1.2
11702 kPa	963.5 ± 1.2
11722 kPa	963.5 ± 1.2
11742 kPa	963.4 ± 1.2
11765 kPa	963.6 ± 1.2
11786 kPa	963.6 ± 1.2
11806 kPa	963.5 ± 1.2
11826 kPa	963.6 ± 1.2
11850 kPa	963.7 ± 1.2
11871 kPa	963.6 ± 1.2
11892 kPa	963.5 ± 1.2
11914 kPa	963.6 ± 1.2
11934 kPa	963.6 ± 1.2
11958 kPa	963.7 ± 1.2
12004 kPa	963.6 ± 1.2
12461 kPa	964 ± 1.2
12560 kPa	964 ± 1.2
12657 kPa	963.9 ± 1.2
12708 kPa	964 ± 1.2
12732 kPa	964 ± 1.2
12784 kPa	964.2 ± 1.2
12808 kPa	964.1 ± 1.2
12962 kPa	964.3 ± 1.2
12986 kPa	964.3 ± 1.2
13011 kPa	964.3 ± 1.2
13041 kPa	964.2 ± 1.2
13066 kPa	964.4 ± 1.2
13090 kPa	964.3 ± 1.2
13120 kPa	964.4 ± 1.2
13146 kPa	964.4 ± 1.2
13171 kPa	964.4 ± 1.2
13202 kPa	964.3 ± 1.2
13252 kPa	964.5 ± 1.2
13283 kPa	964.5 ± 1.2
13308 kPa	964.4 ± 1.2
13334 kPa	964.6 ± 1.2
13365 kPa	964.6 ± 1.2
13391 kPa	964.5 ± 1.2
13418 kPa	964.6 ± 1.2
13449 kPa	964.6 ± 1.2
13475 kPa	964.7 ± 1.2
13502 kPa	964.6 ± 1.2
13533 kPa	964.6 ± 1.2
13560 kPa	964.7 ± 1.2
13587 kPa	964.5 ± 1.2
13619 kPa	964.7 ± 1.2
13645 kPa	964.7 ± 1.2
13678 kPa	964.8 ± 1.2
13705 kPa	964.6 ± 1.2
13732 kPa	964.8 ± 1.2
13760 kPa	964.7 ± 1.2
13793 kPa	964.8 ± 1.2
